No end group written: not given here.
Legend:
MMQ cells [1] = test: cAMP levels in the MMQ cells; format: cell-based, rat; settings: for effect on the dopaminergic inhibition of stimulated cAMP: pertussis toxin as pre-treatment of the cells
Text: Further studies included measurement of the cAMP levels in the MMQ cells.

MMQ cells [2] = test: 45Ca2+ uptake/efflux in MMQ (floater) cells; format: cell-based, rat
Method: The MMQ cell line was derived from the pituitary tumor 7315a, a cell line that secretes both prolactin and adrenocorticotrophin (ACTH). The MMQ cell line was obtained by cutting a 7315a tumor into small pieces and then dispersing the pieces into a population of single cells by means of incubating tumor pieces with collagenase. These cells were incubated in tissue culture flasks containing RPMI1640, 5% NHS, 5% FCS. […] The floater cells, which we have designated MMQ, were small granular and irregularly shaped in contrast to the cells that adhered to the flasks.

MMQ cells [3] = test system: MMQ cells
Text: The non-adherent cell has been designated MMQ.
The clonal cell line MMQ, was derived from the non-adherent cells which secrete only prolactin and no detectable amounts of ACTH or any other pituitary hormones.

[4] = test system: adherent cells of pituitary tumor 7315a
Text: This isolation involved the use of the solid tumor which was dispersed with collagenase and cultured in RPMI-1640 containing normal horse and calf serum. As previously mentioned, one population is adherent to plastic-ware and the other is non-adherent.

## O=C(CCCN1CCC(O)(c2ccc(Cl)cc2)CC1)c1ccc(F)cc1 [Haloperidol]
MMQ cells [1]
  effect on the dopaminergic inhibition of stimulated cAMP: blocked the dopaminergic effects

## C[C@H](N)C(=O)NCC(=O)N[C@H]1CSSC[C@@H](C(=O)O)NC(=O)[C@H](CO)NC(=O)[C@H]([C@@H](C)O)NC(=O)[C@H](Cc2ccccc2)NC(=O)[C@H]([C@@H](C)O)NC(=O)[C@H](CCCCN)NC(=O)[C@H](Cc2c[nH]c3ccccc23)NC(=O)[C@H](Cc2ccccc2)NC(=O)[C@H](Cc2ccccc2)NC(=O)[C@H](CC(N)=O)NC(=O)[C@H](CCCCN)NC1=O [Somatostatin]
MMQ cells [1]; SRIF 100 nM
  attenuation of forskolin and VIP-stimulated cAMP generation: 30%

## NCCc1ccc(O)c(O)c1 [dopamine]
MMQ cells [2]; addition of dopamine, MMQ cells
  effect on maitotoxin-induced efflux of 45Ca2+: blocked
MMQ cells [1]; Rattus norvegicus, 1 μM of dopamine, read-out: attenuation of forskolin and VIP-stimulated cAMP generation
  inhibition at 1 µM: 50%
MMQ cells [1]; dopamine 50-1000 nM
  effect on VIP-, forskolin- and choleratoxin-increased cellular cAMP levels: inhibited each response in a concentration-dependent manner
MMQ cells [3]; MMQ cells after more than a year in culture
  effect of dopamine on prolactin-release after long-term culture: has not been altered
MMQ cells [3]; clonal MMQ cells
  inhibition of maitotoxin-induced prolactin release: 50-80%
MMQ cells [3]; non-adherent cells
  effect on prolactin release stimulated by maitotoxin: inhibits prolactin release
[4]
  effect on prolactin release stimulated by maitotoxin: not in the adherent ones

## C=C[C@@]1(C)CC(=O)[C@]2(O)[C@@]3(C)[C@@H](O)CCC(C)(C)[C@@H]3[C@H](O)[C@H](OC(C)=O)[C@@]2(C)O1 [forskolin]
MMQ cells [1]
  cellular cAMP levels: increased

## C=CC[C@H](C)[C@H](C)C[C@@H](O)[C@H](O)[C@@H]1CC[C@@]2(C)O[C@@]3(C)C[C@@]4(C)O[C@H]5/C=C\C[C@H]6O[C@H]7C[C@H]8O[C@H]9C[C@@]%10(C)O[C@@](C)([C@@H]%11CC[C@H]%12O[C@@]%13(C)C[C@H]%14O[C@@]%15(C)C[C@H]%16O[C@@]%17(C)C[C@@H](O)[C@H]([C@@H]%18O[C@H]%19[C@H](O)[C@@H](O)[C@H](C[C@H](O)C[C@@H](O)[C@@H]%20O[C@H]%21[C@H](O)[C@@H](O)[C@H]([C@@H]%22O[C@@H]%23[C@H](O)[C@H]%24O[C@H]%25C[C@H]%26O[C@@H](C[C@H](O)[C@@H](O)[C@H]%27O[C@H]%28[C@H](O)[C@H]%29O[C@H]%30C[C@H]%31O[C@H]%32[C@@H](O)[C@@H](O)[C@H]([C@H](C)[C@H](O)[C@H](C)CC[C@H](OS(=O)(=O)O)[C@H](O)[C@H](C)C[C@@H](O)C(=C)/C(C)=C/CO)O[C@@H]%32[C@H](O)C[C@]%31(C)O[C@@H]%30C[C@]%29(C)O[C@@H]%28C[C@H]%27O)[C@H](OS(=O)(=O)O)[C@H](O)[C@@H]%26O[C@@H]%25C[C@@H]%24O[C@H]%23[C@H](O)[C@H]%22O)O[C@H]%21C[C@H]%20O)O[C@H]%19C[C@H]%18O)O[C@@H]%17[C@H](O)[C@]%16(C)O[C@@H]%15CC[C@]%14(C)O[C@@H]%13C[C@@H]%12O%11)[C@H](O)C[C@@H]%10O[C@]9(C)CC[C@]8(C)O[C@]7(C)C[C@@H]6O[C@@H]5C[C@@H]4O[C@@H]3C[C@@H]2O1 [maitotoxin]
MMQ cells [2]; MMQ floater cells loaded with 45Ca2+
  response of MMQ cells to maitotoxin (45Ca2+): modest response

## Vasoactive intestinal peptide (HSDAVFTDNYTRLRKQMAVKKYLNSILN; ends and bridges not checked; UniProt P01282 125-152, looked up) [peptide that increases cellular cAMP levels]
MMQ cells [1]
  cellular cAMP levels: increased

## choleratoxin
MMQ cells [1]
  cellular cAMP levels: increased

## pertussis toxin
MMQ cells [1]
  effect on the dopaminergic inhibition of stimulated cAMP: blocked the dopaminergic effects

— patent US5510260A, “Prolactin secreting cell line and method of obtaining the same” (Unversity of Virginia Patent Foundation, priority 1993, dated 1996)
